Results on 25 compounds are retold here after patent US7723523B2, “Tetrahydropyridothiophenes” (4SC AG, priority 2004, dated 2010).

Usually IC50 stands for the concentration that inhibits the measured activity by half.

A value given as a limit tells only on which side of the number the result lay.

Assay [1] deals with RKO colon adenocarcinoma cells (RKOp27) arrested by expression of ectopic p27Kip1. Kind of assay: Alamar Blue cell viability assay on RKOp27 cells arrested by Ponasterone A-induced p27Kip1 (cell cycle specific mode of action). The conditions noted are these: Homo sapiens, RKOp27, 72 h, cells arrested by p27Kip1 induced with 10 μM Ponasterone A, 72 hours incubation, read-out: IC50 RKO p27 arrested. In kind it is cell-based. The method in brief:
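Viability measured by Alamar Blue fluorescence (ex 544, em 590 nm) after 72 h, 37 °C compound exposure in quadruplicate, normalized to untreated cells as 100%. Cells were p27Kip1-arrested RKOp27, induced with 10 μM Ponasterone A at seeding; compound added 24 h later.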
For orientation: Resazurin is reduced to fluorescent resorufin, in cell work by metabolically active cells.

In assay [2] the test system is RKO (RKOp27) human colon adenocarcinoma cells. Kind of assay: Alamar Blue cell viability assay, anti-proliferative/cytotoxic activity on proliferating RKOp27 cells. The format is cell-based. The conditions noted are these: absence of Ponasterone A, 72 hours incubation, read-out: IC50 RKO p27 proliferating. In short, it runs like this:
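IC50 values come from concentration-effect curves of Alamar Blue fluorescence (544/590 nm), relative to untreated controls set at 100%. Cells were RKOp27, seeded at 4000/well in DMEM with 10% FCS and exposed from 24 h post-seeding for 72 h (37 °C, 5% CO2) to semi-log dilutions, each run in quadruplicate.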

Consider `COCC(=O)N1CCc2c(sc(NC(=O)/C=C/c3ccccc3)c2C#N)C1` [Example 181, (E)-N-[3-Cyano-6-(2-methoxy-ethanoyl)-4,5,6,7-tetrahydro-thieno[2,3-c]pyridin-2-yl]-3-phenyl-acrylamide], for which the IC50 in assay [1] is not below 100 µM; in assay [2] it was not above 2 µM.

For the compound `N#Cc1c(NC(=O)/C=C/c2ccccc2)sc2c1CCN(C(=O)CCc1c[nH]c3ccccc13)C2` [Example 171, (E)-N-[3-Cyano-6-(3-1H-indol-3-yl-propanoyl)-4,5,6,7-tetrahydro-thieno[2,3-c]pyridin-2-yl]-3-phenyl-acrylamide], the IC50 in assay [1] is not below 100 µM; in assay [2], not above 2 µM.

For `CCOC(=O)N1CCc2c(sc(NC(=O)/C=C/c3ccccc3CC)c2C#N)C1` [Example 82, 3-Cyano-2-[(E)-3-(2-ethyl-phenyl)-allanoylamino]-4,7-dihydro-5H-thieno[2,3-c]pyridine-6-carboxylic acid ethyl ester], the IC50 is not below 100 µM in assay [1] and not above 2 µM in assay [2].

As to `N#Cc1c(NC(=O)/C=C/c2cccnc2)sc2c1CCN(C(=O)OCc1ccccc1)C2` [Example 144, 3-Cyano-2-((E)-3-pyridin-3-yl-allanoylamino)-4,7-dihydro-5H-thieno[2,3-c]pyridine-6-carboxylic acid benzyl ester], the figures for the IC50 in assay [1] and in assay [2] were not below 100 µM and not above 2 µM, respectively.

On to `CCOC(=O)N1CCc2c(sc(NC(=O)/C=C/c3ccccc3Cl)c2C#N)C1` [Example 4, N-(6-Ethoxycarbonyl-3-cyano-4,5,6,7-tetrahydro-thieno[2,3-c]pyridin-2-yl)-3-(2-chlorophenyl)-acrylamide], for which the results for the IC50 in assay [1] and in assay [2] were more than 100 µM and not above 2 µM, respectively.

With `CCOC(=O)N1CCc2c(sc(NC(=O)/C=C/c3ccc(Cl)s3)c2C#N)C1` [Example 72, 2-[(E)-3-(5-Chloro-thiophen-2-yl)-allanoylamino]-3-cyano-4,7-dihydro-5H-thieno[2,3-c]pyridine-6-carboxylic acid ethyl ester], the IC50 in assay [1] was not below 100 µM; in assay [2] it was not above 2 µM.

On to `CCOC(=O)N1CCc2c(sc(NC(=O)/C=C/c3ccccc3OC(C)=O)c2C#N)C1` [Example 69, 2-[(E)-3-(2-Acetoxy-phenyl)-allanoylamino]-3-cyano-4,7-dihydro-5H-thieno[2,3-c]pyridine-6-carboxylic acid ethyl ester], for which the concentration for half-maximal inhibition (IC50) in assay [1] is not below 50 µM; in assay [2] it was not above 0.5 µM.

On to `CC(=O)NCCOC(=O)N1CCc2c(sc(NC(=O)/C=C/c3ccccc3)c2C#N)C1` [Example 134, 3-Cyano-2-((E)-3-phenyl-allanoylamino)-4,7-dihydro-5H-thieno[2,3-c]pyridine-6-carboxylic acid 2-acetylamino-ethyl ester], for which the figures for the IC50 in assay [1] and in assay [2] were not below 100 µM and not above 2 µM, respectively.

For `COC(=O)CCCC(=O)N1CCc2c(sc(NC(=O)/C=C/c3ccccc3)c2C#N)C1` [Example 186, 5-[3-Cyano-2-((E)-3-phenyl-allanoylamino)-4,7-dihydro-5H-thieno[2,3-c]pyridin-6-yl]-5-oxo-pentanoic acid methyl ester], the IC50 in assay [1] is not below 100 µM; in assay [2], not above 2 µM.

Regarding `CCOC(=O)N1CCc2c(sc(NC(=O)/C=C/c3cccs3)c2C#N)C1` [Example 8, 3-Cyano-2-((E)-3-thiophen-2-yl-allanoylamino)-4,7-dihydro-5H-thieno[2,3-c]pyridine-6-carboxylic acid ethyl ester], the results for the IC50 in assay [1] and in assay [2] were more than 100 µM and not above 2 µM, respectively.

For `CCOC(=O)N1CCc2c(sc(NC(=O)/C=C/c3ccc(Cl)cc3Cl)c2C#N)C1` [Example 28, 3-Cyano-2-[(E)-3-(2,4-dichloro-phenyl)-allanoylamino]-4,7-dihydro-5H-thieno[2,3-c]pyridine-6-carboxylic acid ethyl ester], the IC50 in assay [1] is more than 100 µM; in assay [2], not above 2 µM.

Consider `Cc1ncc([N+](=O)[O-])n1CCOC(=O)N1CCc2c(sc(NC(=O)/C=C/c3ccccc3)c2C#N)C1` [Example 122, 3-Cyano-2-((E)-3-phenyl-allanoylamino)-4,7-dihydro-5H-thieno[2,3-c]pyridine-6-carboxylic acid 2-(2-methyl-5-nitro-imidazol-1-yl)-ethyl ester], for which the 50% inhibitory concentration (IC50) is not below 100 µM in assay [1] and not above 2 µM in assay [2].

Consider `N#Cc1c(NC(=O)/C=C/c2ccccc2)sc2c1CCN(C(=O)Cn1ccnc1)C2` [Example 188, (E)-N-[3-Cyano-6-(2-imidazol-1-yl-ethanoyl)-4,5,6,7-tetrahydro-thieno[2,3-c]pyridin-2-yl]-3-phenyl-acrylamide], for which the IC50 in assay [1] was not below 100 µM; in assay [2], not above 2 µM.

`COc1ccccc1/C=C/C(=O)Nc1sc2c(c1C#N)CCN(C(=O)OCc1ccccn1)C2` [Example 138, 3-Cyano-2-[(E)-3-(2-methoxy-phenyl)-allanoylamino]-4,7-dihydro-5H-thieno[2,3-c]pyridine-6-carboxylic acid pyridin-2-ylmethyl ester]: the IC50 is not below 100 µM in assay [1] and not above 2 µM in assay [2].

As for `COCCOCC(=O)N1CCc2c(sc(NC(=O)/C=C/c3cccnc3)c2C#N)C1` [Example 200, (E)-N-{3-Cyano-6-[2-(2-methoxy-ethoxy)-ethanoyl]-4,5,6,7-tetrahydro-thieno[2,3-c]pyridin-2-yl}-3-pyridin-3-yl-acrylamide], the IC50 in assay [1] is not below 100 µM; in assay [2], not above 2 µM.

As for `N#Cc1c(NC(=O)/C=C/c2ccccc2Cl)sc2c1CCN(C(=O)Cc1ccncc1)C2` [Example 214, (E)-3-(2-Chloro-phenyl)-N-[3-cyano-6-(2-pyridin-4-yl-ethanoyl)-4,5,6,7-tetrahydro-thieno[2,3-c]pyridin-2-yl]-acrylamide], the IC50 in assay [1] was not below 100 µM; in assay [2] it was not above 2 µM.

In the case of `N#Cc1c(NC(=O)/C=C/c2cccnc2)sc2c1CCN(C(=O)Cc1ccccn1)C2` [Example 196, (E)-N-[3-Cyano-6-(2-pyridin-2-yl-ethanoyl)-4,5,6,7-tetrahydro-thieno[2,3-c]pyridin-2-yl]-3-pyridin-3-yl-acrylamide], the results for the IC50 in assay [1] and in assay [2] were not below 100 µM and not above 2 µM, respectively.

In the case of `COc1ccccc1/C=C/C(=O)Nc1sc2c(c1C#N)CCN(C(=O)OCc1cccnc1)C2` [Example 140, 3-Cyano-2-[(E)-3-(2-methoxy-phenyl)-allanoylamino]-4,7-dihydro-5H-thieno[2,3-c]pyridine-6-carboxylic acid pyridin-3-ylmethyl ester], the IC50 in assay [1] was not below 100 µM; in assay [2], not above 2 µM.

As to `COCCOCC(=O)N1CCc2c(sc(NC(=O)/C=C/c3ccccc3OC)c2C#N)C1` [Example 209, (E)-N-{3-Cyano-6-[2-(2-methoxy-ethoxy)-ethanoyl]-4,5,6,7-tetrahydro-thieno[2,3-c]pyridin-2-yl}-3-(2-methoxy-phenyl)-acrylamide], the IC50 in assay [1] is not below 100 µM; in assay [2] it was not above 2 µM.

With `CCOC(=O)N1CCc2c(sc(NC(=O)/C=C/c3c(F)ccc(F)c3F)c2C#N)C1` [Example 68, 3-Cyano-2-[(E)-3-(2,3,6-trifluoro-phenyl)-allanoylamino]-4,7-dihydro-5H-thieno[2,3-c]pyridine-6-carboxylic acid ethyl ester], the IC50 in assay [1] was not below 100 µM; in assay [2], not above 2 µM.

For the compound `CCCCOC(=O)N1CCc2c(sc(NC(=O)/C=C/c3cccnc3)c2C#N)C1` [Example 43, 3-Cyano-2-((E)-3-pyridin-3-yl-allanoylamino)-4,7-dihydro-5H-thieno[2,3-c]pyridine-6-carboxylic acid butyl ester], the IC50 in assay [1] was more than 100 µM; in assay [2] it was not above 2 µM.

With `N#Cc1c(NC(=O)/C=C/c2cccnc2)sc2c1CCN(C(=O)OCc1cccnc1)C2` [Example 150, 3-Cyano-2-((E)-3-pyridin-3-yl-allanoylamino)-4,7-dihydro-5H-thieno[2,3-c]pyridine-6-carboxylic acid pyridin-3-ylmethyl ester], the IC50 in assay [1] was not below 100 µM; in assay [2], not above 2 µM.

As to `COCC(=O)N1CCc2c(sc(NC(=O)/C=C/c3cccnc3)c2C#N)C1` [Example 194, (E)-N-[3-Cyano-6-(2-methoxy-ethanoyl)-4,5,6,7-tetrahydro-thieno[2,3-c]pyridin-2-yl]-3-pyridin-3-yl-acrylamide], the results for the IC50 in assay [1] and in assay [2] were not below 100 µM and not above 2 µM, respectively.

As to `CCSC(=O)N1CCc2c(sc(NC(=O)/C=C/c3ccccc3)c2C#N)C1` [Example 35, 3-Cyano-2-((E)-3-phenyl-allanoylamino)-4,7-dihydro-5H-thieno[2,3-c]pyridine-6-carbothioic acid S-ethyl ester], the IC50 was more than 100 µM in assay [1] and not above 2 µM in assay [2].

Consider `CCOC(=O)N1CCc2c(sc(NC(=O)/C=C/c3cc(OC)ccc3OC)c2C#N)C1` [Example 102, 3-Cyano-2-[(E)-3-(2,5-dimethoxy-phenyl)-allanoylamino]-4,7-dihydro-5H-thieno[2,3-c]pyridine-6-carboxylic acid ethyl ester], for which the IC50 in assay [1] is not below 100 µM; in assay [2], not above 2 µM.
